Columns and labels:
[1] = Cytotoxicity against mouse splenocytes assessed as cell viability at 0.3 ug/ml after 88 hrs by MTT assay; assay type: cell-based, Splenocyte; settings: read-out: Activity
Splenocyte [2] = assay: Immunosuppressive activity against mouse splenocytes assessed as [3H]thymidine incorporation at 250 ug/ml after 88 hrs by liquid scintillation counting; assay type: functional
Splenocyte [3] = assay: Immunosuppressive activity against mouse splenocytes assessed as [3H]thymidine incorporation at 31.3 ug/ml after 88 hrs by liquid scintillation counting; assay type: functional
Splenocyte [4] = assay: Immunosuppressive activity against concanavalin A-activated mouse splenocytes assessed as [3H]thymidine incorporation at 1.0 ug/ml after 72 hrs by liquid scintillation counting; assay type: functional
Splenocyte [5] = assay: Immunosuppressive activity against concanavalin A-activated mouse splenocytes assessed as [3H]thymidine incorporation at 250 ug/ml after 72 hrs by liquid scintillation counting; assay type: functional
[6] = Cytotoxicity against mouse splenocytes assessed as cell viability at 62.5 ug/ml after 88 hrs by MTT assay; assay type: cell-based, Splenocyte; settings: read-out: Activity
Splenocyte [7] = assay: Immunosuppressive activity against mouse splenocytes assessed as [3H]thymidine incorporation at 1.0 ug/ml after 88 hrs by liquid scintillation counting; assay type: functional
Splenocyte [8] = assay: Immunosuppressive activity against mouse splenocytes assessed as [3H]thymidine incorporation at 62.5 ug/ml after 88 hrs by liquid scintillation counting; assay type: functional
Splenocyte [9] = assay: Immunosuppressive activity against concanavalin A-activated mouse splenocytes assessed as [3H]thymidine incorporation at 0.3 ug/ml after 72 hrs by liquid scintillation counting; assay type: functional
Splenocyte [10] = assay: Immunosuppressive activity against concanavalin A-activated mouse splenocytes assessed as [3H]thymidine incorporation at 3.9 ug/ml after 72 hrs by liquid scintillation counting; assay type: functional
Splenocyte [11] = assay: Immunosuppressive activity against mouse splenocytes assessed as [3H]thymidine incorporation at 500 ug/ml after 88 hrs by liquid scintillation counting; assay type: functional
[12] = Cytotoxicity against mouse splenocytes assessed as cell viability at 7.8 ug/ml after 88 hrs by MTT assay; assay type: cell-based, Splenocyte; settings: read-out: Activity
Splenocyte [13] = assay: Immunosuppressive activity against concanavalin A-activated mouse splenocytes assessed as [3H]thymidine incorporation at 31.3 ug/ml after 72 hrs by liquid scintillation counting; assay type: functional
[14] = Cytotoxicity against mouse splenocytes assessed as cell viability at 2.0 ug/ml after 88 hrs by MTT assay; assay type: cell-based, Splenocyte; settings: read-out: Activity
Splenocyte [15] = assay: Immunosuppressive activity against mouse splenocytes assessed as [3H]thymidine incorporation at 2.0 ug/ml after 88 hrs by liquid scintillation counting; assay type: functional
Splenocyte [16] = assay: Immunosuppressive activity against concanavalin A-activated mouse splenocytes assessed as [3H]thymidine incorporation at 0.5 ug/ml after 72 hrs by liquid scintillation counting; assay type: functional
Splenocyte [17] = assay: Immunosuppressive activity against mouse splenocytes assessed as [3H]thymidine incorporation at 3.9 ug/ml after 88 hrs by liquid scintillation counting; assay type: functional
Splenocyte [18] = assay: Immunosuppressive activity against mouse splenocytes assessed as [3H]thymidine incorporation at 0.5 ug/ml after 88 hrs by liquid scintillation counting; assay type: functional
Splenocyte [19] = assay: Immunosuppressive activity against concanavalin A-activated mouse splenocytes assessed as [3H]thymidine incorporation at 62.5 ug/ml after 72 hrs by liquid scintillation counting; assay type: functional
[20] = Cytotoxicity against mouse splenocytes assessed as cell viability at 500 ug/ml after 88 hrs by MTT assay; assay type: cell-based, Splenocyte; settings: read-out: Activity
Splenocyte [21] = assay: Immunosuppressive activity against concanavalin A-activated mouse splenocytes assessed as [3H]thymidine incorporation at 2.0 ug/ml after 72 hrs by liquid scintillation counting; assay type: functional
Splenocyte [22] = assay: Immunosuppressive activity against mouse splenocytes assessed as [3H]thymidine incorporation at 7.8 ug/ml after 88 hrs by liquid scintillation counting; assay type: functional
Splenocyte [23] = assay: Immunosuppressive activity against concanavalin A-activated mouse splenocytes assessed as [3H]thymidine incorporation at 7.8 ug/ml after 72 hrs by liquid scintillation counting; assay type: functional
Splenocyte [24] = assay: Immunosuppressive activity against concanavalin A-activated mouse splenocytes assessed as [3H]thymidine incorporation at 125 ug/ml after 72 hrs by liquid scintillation counting; assay type: functional
[25] = Cytotoxicity against mouse splenocytes assessed as cell viability at 15.6 ug/ml after 88 hrs by MTT assay; assay type: cell-based, Splenocyte; settings: read-out: Activity
[26] = Cytotoxicity against mouse splenocytes assessed as cell viability at 250 ug/ml after 88 hrs by MTT assay; assay type: cell-based, Splenocyte; settings: read-out: Activity
Splenocyte [27] = assay: Immunosuppressive activity against mouse splenocytes assessed as [3H]thymidine incorporation at 125 ug/ml after 88 hrs by liquid scintillation counting; assay type: functional
Splenocyte [28] = assay: Immunosuppressive activity against concanavalin A-activated mouse splenocytes assessed as [3H]thymidine incorporation at 500 ug/ml after 72 hrs by liquid scintillation counting; assay type: functional
Splenocyte [29] = assay: Immunosuppressive activity against mouse splenocytes assessed as [3H]thymidine incorporation at 15.6 ug/ml after 88 hrs by liquid scintillation counting; assay type: functional
[30] = Cytotoxicity against mouse splenocytes assessed as cell viability at 125 ug/ml after 88 hrs by MTT assay; assay type: cell-based, Splenocyte; settings: read-out: Activity
[31] = Cytotoxicity against mouse splenocytes assessed as cell viability at 1.0 ug/ml after 88 hrs by MTT assay; assay type: cell-based, Splenocyte; settings: read-out: Activity
[32] = Cytotoxicity against mouse splenocytes assessed as cell viability at 0.5 ug/ml after 88 hrs by MTT assay; assay type: cell-based, Splenocyte; settings: read-out: Activity
[33] = Cytotoxicity against mouse splenocytes assessed as cell viability at 31.3 ug/ml after 88 hrs by MTT assay; assay type: cell-based, Splenocyte; settings: read-out: Activity
[34] = Cytotoxicity against mouse splenocytes assessed as cell viability at 3.9 ug/ml after 88 hrs by MTT assay; assay type: cell-based, Splenocyte; settings: read-out: Activity
Splenocyte [35] = assay: Immunosuppressive activity against concanavalin A-activated mouse splenocytes assessed as [3H]thymidine incorporation at 15.6 ug/ml after 72 hrs by liquid scintillation counting; assay type: functional
[36] = Cytotoxicity against mouse splenocytes assessed as cell viability at 0.25 ug/ml after 88 hrs by MTT assay; assay type: cell-based, Splenocyte; settings: read-out: Activity
Splenocyte [37] = assay: Immunosuppressive activity against mouse splenocytes assessed as [3H]thymidine incorporation at 0.25 ug/ml after 88 hrs by liquid scintillation counting; assay type: functional

Row | SMILES | Activity (Splenocyte [2]) | Activity (Splenocyte [3]) | viability at 88 h, 62.5 ug/ml [6] | Activity (Splenocyte [7]) | Activity (Splenocyte [8]) | Activity (Splenocyte [11]) | viability at 88 h, 7.8 ug/ml [12] | viability at 88 h, 2 ug/ml [14] | Activity (Splenocyte [15]) | Activity (Splenocyte [17]) | Activity (Splenocyte [18]) | viability at 88 h, 500 ug/ml [20] | Activity (Splenocyte [22]) | viability at 88 h, 15.6 ug/ml [25] | viability at 88 h, 250 ug/ml [26] | Activity (Splenocyte [27]) | Activity (Splenocyte [29]) | viability at 88 h, 125 ug/ml [30] | viability at 88 h, 1 ug/ml [31] | viability at 88 h, 0.5 ug/ml [32] | also measured
1 | O=C(O)c1cc(Br)c(Br)[nH]1 | 100% | 100% | 27% | 13% | 100% | 100% | 99% | 99% | 31% | 59% | 0% | 10% | 40% | 66% | 0% | 100% | 100% | 12% | 95% | 113% | viability at 88 h, 0.3 ug/ml [1]: 100%; Activity (Splenocyte [4]): 43%; Activity (Splenocyte [5]): 99%; Activity (Splenocyte [9]): 50%; Activity (Splenocyte [10]): 70%; Activity (Splenocyte [13]): 83%; Activity (Splenocyte [16]): 39%; Activity (Splenocyte [19]): 83%; Activity (Splenocyte [21]): 29%; Activity (Splenocyte [23]): 64%; Activity (Splenocyte [24]): 83%; Activity (Splenocyte [28]): 83%; viability at 88 h, 31.3 ug/ml [33]: 27%; viability at 88 h, 3.9 ug/ml [34]: 80%; Activity (Splenocyte [35]): 84%
2 | CC(C)CCC[C@@H](C)[C@H]1CC[C@H]2C3=C(CC[C@]12C)[C@@]1(C)CC[C@H](O)[C@@H](C)[C@@H]1CC3 | 100% | 100% | 72% | 81% | 100% | 100% | 80% | 77% | 100% | 100% | 46% | 6% | 100% | 92% | 10% | 100% | 100% | 28% | 97% | 118% | viability at 88 h, 0.25 ug/ml [36]: 104%; viability at 88 h, 31.3 ug/ml [33]: 85%; viability at 88 h, 3.9 ug/ml [34]: 99%; Activity (Splenocyte [37]): 0%
